In ChEMBL document CHEMBL4376867 (J Med Chem, 2020):

Columns and labels:
[1] = biological target: T1, Serine/threonine-protein kinase TBK1 (Homo sapiens, UniProt Q9UHD2)
T1 sequence (Q9UHD2 whole entry): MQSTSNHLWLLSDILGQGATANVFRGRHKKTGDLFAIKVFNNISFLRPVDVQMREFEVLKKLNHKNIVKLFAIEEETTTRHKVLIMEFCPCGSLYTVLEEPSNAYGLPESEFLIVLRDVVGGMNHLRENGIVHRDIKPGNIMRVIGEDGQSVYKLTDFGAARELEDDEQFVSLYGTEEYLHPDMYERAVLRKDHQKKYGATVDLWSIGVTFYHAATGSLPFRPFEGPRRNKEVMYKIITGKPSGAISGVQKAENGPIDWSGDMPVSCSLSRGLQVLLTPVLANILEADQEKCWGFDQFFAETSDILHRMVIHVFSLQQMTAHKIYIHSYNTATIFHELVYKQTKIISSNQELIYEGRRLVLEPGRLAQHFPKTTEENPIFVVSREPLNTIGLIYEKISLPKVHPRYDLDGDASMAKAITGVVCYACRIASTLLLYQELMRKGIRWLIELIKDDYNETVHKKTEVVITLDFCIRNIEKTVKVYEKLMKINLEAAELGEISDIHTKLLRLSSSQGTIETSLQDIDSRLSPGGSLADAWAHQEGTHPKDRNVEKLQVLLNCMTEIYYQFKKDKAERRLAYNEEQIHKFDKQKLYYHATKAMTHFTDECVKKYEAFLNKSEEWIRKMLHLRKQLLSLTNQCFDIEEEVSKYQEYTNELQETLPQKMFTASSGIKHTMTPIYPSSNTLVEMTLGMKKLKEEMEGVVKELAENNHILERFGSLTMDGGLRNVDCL

SK-MEL-2 = assay: Antiproliferative activity against human SK-MEL-2 cells harboring NRAS/TP53 mutation assessed as reduction in cell viability after 96 hrs by CellTiter-Glo luminescence assay; format: functional, cell-based; conditions: SK-MEL-2, 96 h
CDK9/cyclin T1 = CDK9/cyclin T1 (Homo sapiens, UniProt P50750); assay: Inhibition of recombinant full length human His-tagged CDK9/CyclinT1 expressed in baculovirus expression system using biotin-labelled Ttds-YISPLKSPYKISEG peptide as substrate preincubated with enzyme for 15 mins followed by substrate addition and further incubated for 25 mins presence of 10 uM of ATP by TR-FRET assay
[2] = biological target: Ribosomal protein S6 kinase alpha-6 (Homo sapiens, UniProt Q9UK32); assay: Inhibition of recombinant full length human His6-tagged RSK4 expressed in baculovirus infected sf21 cells using biotin labelled Ahx-KKLNRTLSFAEPG peptide as substrate preincubated with enzyme for 15 mins followed by substrate addition and further incubated for 30 mins in presence of 10 uM of ATP by TR-FRET assay
ACHN = assay: Antiproliferative activity against human ACHN cells harboring CDKN2A mutation assessed as reduction in cell viability after 96 hrs by CellTiter-Glo luminescence assay; format: functional, cell-based
[3] = biological target: T2, Serine/threonine-protein kinase ULK1 (Homo sapiens, UniProt O75385); assay: Inhibition of wild-type human partial length ULK1 (M1 to T309 residues) expressed in mammalian expression system
T2 sequence (O75385 whole entry): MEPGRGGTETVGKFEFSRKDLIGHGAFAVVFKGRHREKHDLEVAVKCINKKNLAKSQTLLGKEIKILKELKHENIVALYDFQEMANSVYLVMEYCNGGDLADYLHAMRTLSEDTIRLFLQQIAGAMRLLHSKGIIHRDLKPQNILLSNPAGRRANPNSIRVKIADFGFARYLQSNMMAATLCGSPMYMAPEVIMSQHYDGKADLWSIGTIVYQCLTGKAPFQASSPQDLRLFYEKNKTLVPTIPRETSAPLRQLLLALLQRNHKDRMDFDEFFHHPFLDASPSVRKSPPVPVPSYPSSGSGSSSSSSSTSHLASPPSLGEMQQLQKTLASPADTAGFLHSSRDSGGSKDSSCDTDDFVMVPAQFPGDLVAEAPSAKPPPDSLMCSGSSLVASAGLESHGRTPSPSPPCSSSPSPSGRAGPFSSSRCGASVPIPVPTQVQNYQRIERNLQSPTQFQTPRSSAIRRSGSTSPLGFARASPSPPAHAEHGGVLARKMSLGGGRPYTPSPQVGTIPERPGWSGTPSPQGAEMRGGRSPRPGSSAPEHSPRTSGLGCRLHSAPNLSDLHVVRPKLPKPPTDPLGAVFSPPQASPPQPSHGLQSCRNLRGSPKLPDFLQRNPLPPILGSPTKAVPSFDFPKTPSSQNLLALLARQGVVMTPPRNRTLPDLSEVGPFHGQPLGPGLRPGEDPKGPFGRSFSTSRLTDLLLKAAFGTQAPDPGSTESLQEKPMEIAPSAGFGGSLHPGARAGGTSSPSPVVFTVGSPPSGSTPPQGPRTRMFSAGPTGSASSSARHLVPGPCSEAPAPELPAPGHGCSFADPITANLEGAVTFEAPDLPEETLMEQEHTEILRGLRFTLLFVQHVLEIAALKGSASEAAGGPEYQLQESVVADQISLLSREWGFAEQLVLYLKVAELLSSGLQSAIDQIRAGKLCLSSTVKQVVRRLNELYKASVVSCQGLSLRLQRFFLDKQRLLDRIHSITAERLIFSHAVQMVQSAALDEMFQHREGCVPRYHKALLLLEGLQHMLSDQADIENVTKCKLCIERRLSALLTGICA

[4] = biological target: T1, Serine/threonine-protein kinase TBK1; assay: Inhibition of recombinant full length human N-terminal His-tagged TBK1 using biotin-labelled Ahx-GDEDFSSFAEPG peptide as substrate preincubated with enzyme for 15 mins followed by substrate addition and further incubated for 30 mins in presence of 1 mM of ATP by TR-FRET assay
[5] = biological target: T3, Serine/threonine-protein kinase 17A (Homo sapiens, UniProt Q9UEE5); assay: Inhibition of wild-type human partial length DRAK1 (R32 to E363 residues) expressed in bacterial expression system by Kinomescan method
T3 sequence (Q9UEE5 whole entry): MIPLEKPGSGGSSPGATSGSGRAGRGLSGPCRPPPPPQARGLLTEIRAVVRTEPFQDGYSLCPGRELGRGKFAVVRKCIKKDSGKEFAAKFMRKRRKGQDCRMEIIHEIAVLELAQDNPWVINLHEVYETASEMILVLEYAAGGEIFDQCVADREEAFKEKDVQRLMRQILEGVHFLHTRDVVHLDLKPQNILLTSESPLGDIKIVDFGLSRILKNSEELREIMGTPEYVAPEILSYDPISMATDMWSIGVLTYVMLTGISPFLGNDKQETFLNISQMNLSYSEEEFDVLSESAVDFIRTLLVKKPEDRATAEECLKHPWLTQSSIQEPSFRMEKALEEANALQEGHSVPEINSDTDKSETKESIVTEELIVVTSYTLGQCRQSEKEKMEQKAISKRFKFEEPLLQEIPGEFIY

[6] = Apparent permeability of compound across basal to apical membrane in human Caco2 cells at 2 uM in DMSO after 2 hrs by LC-MS/MS analysis; format: ADME, cell-based; conditions: Caco-2

CDK9/cyclin T1, sequence (O60563 whole entry): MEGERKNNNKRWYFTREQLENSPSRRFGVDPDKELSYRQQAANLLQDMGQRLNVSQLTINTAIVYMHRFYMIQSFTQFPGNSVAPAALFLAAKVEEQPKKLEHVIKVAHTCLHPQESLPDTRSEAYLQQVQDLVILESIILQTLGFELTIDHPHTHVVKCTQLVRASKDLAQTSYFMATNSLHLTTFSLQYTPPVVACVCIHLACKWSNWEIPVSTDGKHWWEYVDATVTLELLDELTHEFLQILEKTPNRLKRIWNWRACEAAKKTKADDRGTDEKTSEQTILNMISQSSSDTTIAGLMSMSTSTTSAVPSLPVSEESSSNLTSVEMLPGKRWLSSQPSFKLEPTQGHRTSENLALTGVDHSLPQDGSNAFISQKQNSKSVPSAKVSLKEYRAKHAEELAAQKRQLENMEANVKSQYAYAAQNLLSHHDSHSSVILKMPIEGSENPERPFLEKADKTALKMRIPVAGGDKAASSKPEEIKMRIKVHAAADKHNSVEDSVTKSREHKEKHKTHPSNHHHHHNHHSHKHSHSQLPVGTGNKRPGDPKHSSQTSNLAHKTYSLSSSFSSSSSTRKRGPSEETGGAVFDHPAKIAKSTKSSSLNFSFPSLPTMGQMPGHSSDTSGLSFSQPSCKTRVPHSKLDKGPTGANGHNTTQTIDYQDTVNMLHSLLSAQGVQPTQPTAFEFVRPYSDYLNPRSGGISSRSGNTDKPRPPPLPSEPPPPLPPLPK
CDK9/cyclin T1, sequence (P50750 whole entry): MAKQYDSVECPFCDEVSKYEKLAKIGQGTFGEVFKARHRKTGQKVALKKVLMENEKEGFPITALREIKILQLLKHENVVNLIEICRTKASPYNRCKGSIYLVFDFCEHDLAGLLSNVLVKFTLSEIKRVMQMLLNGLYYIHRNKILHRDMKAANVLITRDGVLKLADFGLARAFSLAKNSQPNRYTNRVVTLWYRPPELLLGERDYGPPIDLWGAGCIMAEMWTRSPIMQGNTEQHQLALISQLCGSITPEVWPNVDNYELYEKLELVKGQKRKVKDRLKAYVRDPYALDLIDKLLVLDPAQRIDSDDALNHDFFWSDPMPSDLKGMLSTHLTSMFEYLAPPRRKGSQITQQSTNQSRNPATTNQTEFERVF
Ribosomal protein S6 kinase alpha-6, sequence (Q9UK32 whole entry): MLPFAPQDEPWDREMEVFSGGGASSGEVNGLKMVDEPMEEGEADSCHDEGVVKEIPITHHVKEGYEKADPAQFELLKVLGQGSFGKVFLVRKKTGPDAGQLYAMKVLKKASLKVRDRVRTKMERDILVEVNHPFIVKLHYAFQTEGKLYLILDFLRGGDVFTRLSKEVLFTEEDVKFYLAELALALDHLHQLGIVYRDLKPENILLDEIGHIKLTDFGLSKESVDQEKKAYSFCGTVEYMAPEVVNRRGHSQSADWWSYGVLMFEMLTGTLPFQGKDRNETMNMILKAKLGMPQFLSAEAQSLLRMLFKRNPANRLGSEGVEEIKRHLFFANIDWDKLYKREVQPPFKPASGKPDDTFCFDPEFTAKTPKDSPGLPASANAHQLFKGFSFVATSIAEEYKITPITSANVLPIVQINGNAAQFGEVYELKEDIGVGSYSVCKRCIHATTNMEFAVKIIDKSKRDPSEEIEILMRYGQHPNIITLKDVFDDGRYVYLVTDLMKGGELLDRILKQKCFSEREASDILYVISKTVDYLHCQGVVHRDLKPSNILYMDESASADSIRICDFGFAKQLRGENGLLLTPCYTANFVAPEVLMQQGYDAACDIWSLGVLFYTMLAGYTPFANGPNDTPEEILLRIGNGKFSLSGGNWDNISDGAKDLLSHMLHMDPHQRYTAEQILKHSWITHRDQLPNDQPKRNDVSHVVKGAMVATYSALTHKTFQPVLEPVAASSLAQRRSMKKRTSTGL

SMILES	IC50 [1] [nM]	IC50 (SK-MEL-2) [nM]	IC50 (CDK9/cyclin T1) [µM]	IC50 [2] [nM]	IC50 (ACHN) [µM]	IC50 [3] [nM]	IC50 [4] [nM]	Kd [5] [nM]	Papp B→A at 2 h, 2 µM [6] [×10⁻⁶ cm/s]	IC50 [5] [nM]
C[C@H](c1ccnc(Nc2nc3ccc(-c4cc(OCC5CC5)ncn4)cc3[nH]2)c1)N1CCN(C(=O)CC(F)(F)F)CC1	2	470	16.1	1260	3.87	416	5			
Cc1noc(-c2ccc3nc(Nc4cc([C@@H](C)N5CCN(C(=O)CC(F)(F)F)CC5)ccn4)[nH]c3c2)n1	19	3530	1.52	2360	8.98		372	10	8.6	
CC(C)Oc1cncnc1-c1ccc2nc(Nc3cc([C@@H](C)N4CCN(C(=O)CC(F)(F)F)CC4)ccn3)[nH]c2c1	2	3970	0.824	7	7.96	263	50			
Cc1cc(-c2ccc3nc(Nc4cc([C@@H](C)N5CCN(C(=O)CC(F)(F)F)CC5)ccn4)[nH]c3c2)ncn1	2	476	2.13	170	2.01	980	17			
C[C@H](c1ccnc(Nc2nc3ccc(-c4cnn(CC5CC5)c4)cc3[nH]2)c1)N1CCN(C(=O)CC(F)(F)F)CC1	1	408	> 20	3220	5.27	9	18	5	11.8	
O=C(CC(F)(F)F)N1CCN(Cc2ccnc(Nc3nc4ccc(-c5cnn(CC6CC6)c5)cc4[nH]3)c2)CC1	5	221	9.19	4120	7.9	28	137		12.5	
C[C@H](c1ccnc(Nc2nc3ccc(-c4cc(N(C)C)ncn4)cc3[nH]2)c1)N1CCN(C(=O)CC(F)(F)F)CC1 [BAY-985]	2	900		276	7.26	7930	30		14.6 to 14.7	311
Cc1noc(-c2ccc3nc(Nc4cc(CN5CCN(C(=O)CC(F)(F)F)CC5)ccn4)[nH]c3c2)n1	129	2180	0.455	8910	9.67		2270	9	14.2	
COCc1cc(-c2ccc3nc(Nc4cc([C@@H](C)N5CCN(C(=O)CC(F)(F)F)CC5)ccn4)[nH]c3c2)ncn1		883	5.11	192	13.4	368			21.8	30
CNc1cc(-c2ccc3nc(Nc4cc(CN5CCN(C(=O)CC(F)(F)F)CC5)ccn4)[nH]c3c2)ncn1	10	245		177	29.8	1640	155			25
CN(C)c1cc(-c2ccc3nc(Nc4cc(CN5CCN(C(=O)CC(F)(F)F)CC5)ccn4)[nH]c3c2)ncn1	9	246	14.4	528	9.69	> 10000	167			252
